Measurements reported in ChEMBL document CHEMBL1201862, “PubChem BioAssay data set” (2004).
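48-hour exposure; five concentrations; linearly interpolated endpoints. At the GI50, growth is halved.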 Activity calls are given as the source filed them. Cut-off read from the data, not from the text of the source: active = GI50 up to about 1.1 µM and inactive = higher.

How the values were obtained:
Assay in all cases: DTP human tumour cell line panel, 48 h
M19-MEL = test system: M19-MEL
CAKI-1 = test system: CAKI-1
U-251 = test system: U-251
LXFL 529 = test system: LXFL 529
COLO 205 = test system: COLO 205
NCI-H23 = test system: NCI-H23
M14 = test system: M14
SK-MEL-5 = test system: SK-MEL-5
IGROV-1 = test system: IGROV-1
SK-OV-3 = test system: SK-OV-3
CCRF-CEM = test system: CCRF-CEM
NCI-H226 = test system: NCI-H226
HCT-116 = test system: HCT-116
786-0 = test system: 786-0
KM12 = test system: KM12
NCI-H460 = test system: NCI-H460
A498 = test system: A498
K562 = test system: K562
SF-295 = test system: SF-295

Measured: GI50

CC1(c2cccc(C3CC4(CCC3=O)OCCCCO4)c2)OCCO1 (stereo not drawn)
inactive: M19-MEL > 100 µM | CAKI-1 > 100 µM | U-251 > 100 µM | LXFL 529 > 100 µM | COLO 205 > 100 µM | NCI-H23 > 100 µM | M14 > 100 µM | SK-MEL-5 > 100 µM | IGROV-1 > 100 µM | SK-OV-3 > 100 µM | CCRF-CEM > 100 µM | NCI-H226 > 100 µM | HCT-116 > 100 µM | 786-0 > 100 µM | KM12 > 100 µM | NCI-H460 > 100 µM | A498 > 100 µM | K562 > 100 µM | SF-295 > 100 µM

C=C1C(=O)C23CC1CCC2C12CO[C@@H]4OCC(C)(CC[C@@H]1OC3=O)C42 (stereo partly drawn)
inactive: M19-MEL 6.53 µM | CAKI-1 2.38 µM | U-251 14 µM | LXFL 529 2.78 µM | COLO 205 2.1 µM | NCI-H23 6.04 µM | M14 1.31 µM | SK-MEL-5 14.8 µM | IGROV-1 6.95 µM | SK-OV-3 23.3 µM | CCRF-CEM 2.38 µM | NCI-H226 20.7 µM | HCT-116 2.08 µM | 786-0 2.24 µM | KM12 5.43 µM | NCI-H460 6.64 µM | A498 19.4 µM | K562 7.69 µM | SF-295 16.9 µM

CCc1c(OC(C)=O)c2c(NC3OCC(OC(C)=O)C(OC(C)=O)C3OC(C)=O)nc(SC)nc2oc1=O (stereo not drawn)
inactive: M19-MEL > 100 µM | CAKI-1 > 100 µM | U-251 > 100 µM | LXFL 529 > 100 µM | COLO 205 > 100 µM | NCI-H23 > 100 µM | M14 > 100 µM | SK-MEL-5 > 100 µM | IGROV-1 > 100 µM | SK-OV-3 > 100 µM | CCRF-CEM > 100 µM | NCI-H226 > 100 µM | HCT-116 > 100 µM | 786-0 > 100 µM | KM12 > 100 µM | NCI-H460 > 100 µM | A498 > 100 µM | K562 > 100 µM | SF-295 > 100 µM

COC(=O)C1CCCC2(C1)OCCO2 (stereo not drawn)
inactive: M19-MEL > 100 µM | CAKI-1 > 100 µM | U-251 > 100 µM | LXFL 529 > 100 µM | COLO 205 > 100 µM | NCI-H23 > 100 µM | M14 > 100 µM | SK-MEL-5 > 100 µM | IGROV-1 > 100 µM | SK-OV-3 > 100 µM | CCRF-CEM > 100 µM | NCI-H226 > 100 µM | HCT-116 > 100 µM | 786-0 > 100 µM | KM12 > 100 µM | NCI-H460 > 100 µM | A498 > 100 µM | K562 > 100 µM | SF-295 > 100 µM

CCOC(=O)C1([Se]c2ccccc2)CCCC1=O (stereo not drawn)
inactive: M19-MEL 19.7 µM | CAKI-1 44.5 µM | U-251 9.95 µM | LXFL 529 14.8 µM | COLO 205 16 µM | NCI-H23 17.4 µM | M14 21.3 µM | SK-MEL-5 20.1 µM | IGROV-1 18.6 µM | SK-OV-3 > 100 µM | CCRF-CEM 15.2 µM | NCI-H226 29 µM | HCT-116 15.5 µM | 786-0 14.2 µM | KM12 30.9 µM | NCI-H460 27.9 µM | A498 > 100 µM | K562 33.5 µM | SF-295 31.8 µM

O=C1c2ccccc2C2(O)N(c3ccccc3)C(=S)N(c3ccccc3)C12O (stereo not drawn)
inactive: M19-MEL > 100 µM | CAKI-1 > 100 µM | U-251 > 100 µM | LXFL 529 > 100 µM | COLO 205 > 100 µM | NCI-H23 > 100 µM | M14 > 100 µM | SK-MEL-5 > 100 µM | IGROV-1 > 100 µM | SK-OV-3 > 100 µM | CCRF-CEM > 100 µM | NCI-H226 > 100 µM | HCT-116 > 100 µM | 786-0 > 100 µM | KM12 > 100 µM | NCI-H460 > 100 µM | A498 > 100 µM | K562 > 100 µM | SF-295 > 100 µM

O=C1C(=Cc2c(O)cc(O)cc2O)C(=O)c2ccccc21
inactive: M19-MEL > 38.5 µM | CAKI-1 > 45.9 µM | U-251 > 42.9 µM | LXFL 529 > 43.5 µM | COLO 205 > 41.5 µM | NCI-H23 > 39.4 µM | M14 > 43.3 µM | SK-MEL-5 > 100 µM | IGROV-1 > 43.5 µM | SK-OV-3 > 100 µM | CCRF-CEM 29.9 µM | NCI-H226 36 µM | HCT-116 > 39.3 µM | 786-0 > 42.1 µM | KM12 > 36.7 µM | NCI-H460 > 45.5 µM | A498 45.1 µM | K562 > 51.8 µM | SF-295 > 41.9 µM
